What was measured:
[1] = molecular target: P. pyralis FLuc (Photinus pyralis, UniProt P08659); test: FLuc enzymatic luminescence assay, P. pyralis FLuc; format: biochemical; parameters: CC-v2: scale not given here
Method: The enzyme activity of FLuc-N-HiBiT, FLuc-C-HiBiT, and FLuc-C-NLuc was measured similar to P. pyralis firefly luciferase (FLuc) as previously described. […] Compounds and controls were added to each plate as described in Supplementary Data 8 with a Hornet pintool system (Wako Automation). Compounds were incubated with respective enzymes for 30–60 min at room temperature protected from light and covered by solid metal lid to prevent evaporation. […] Luciferin was incubated with FLuc enzyme for 5 min before FLuc activity was then measured on a ViewLux CCD imager (PerkinElmer), with exposure times up to ten seconds with medium to high gain settings. Data were normalized to average no enzyme control as 100% enzyme inhibition and average DMSO neutral control. See Supplementary Table 4 for additional details.
Assays were run in the presence (solid symbols) or absence
(open symbols) of 10 µM ATP. Corresponding SMIL E S for NC GC IDs and source data are provided in
Supplementary Data 3 and as a Source Data file. 10
Supplementary Table 4. Protocol for Firefly luciferase (FLuc) and NanoLuc (NLuc) enzymatic
Supplementary Table 4: Protocol for Firefly luciferase (FLuc) and NanoLuc (NLuc) enzym atic lum inescence assay
Firefly luciferase (FLuc) enzym atic lum inescence assay
Sequence Param eter Value Description
No enzym e control (colum n 1) and enzym e solution (1- 10 nM FLuc enzym e) in FLuc assay
1 Reagent 4 µLbuffer; white/solid bottom , m edium bind, high base plates (Greiner), dispensed with BioRaptr
com pounds transferred to respective colum ns with Pintool
2b Test Com pounds 23 nLconcentration range) in colum ns 5- 48; com pounds transferred to respective wells with
3 Incubation 30 m in Incubate enzym e + com pounds at am bient tem p for 30 m in, protected from light
4 Reagent 3 µLAdd 3 µL of D-luciferin substrate solution to each well (final concentration 10 µM); dispensed
5 Detector ViewLux Read plate lum inescence (Exposure = 1- 10 sec; Gain = Medium -high; Speed = Slow;
Dispensing solution was diluted in 1X PBS, pH 7.4. […]

[2] = molecular target: FLuc-C-HiBiT (firefly luciferase) (Photinus pyralis, UniProt P08659, form not given/L550V); test: SDR assay, FLuc-C-HiBiT; details: SDR max. response, clade S
Chain of FLuc-C-HiBiT (firefly luciferase) (P08659 2-550 L550V, form open): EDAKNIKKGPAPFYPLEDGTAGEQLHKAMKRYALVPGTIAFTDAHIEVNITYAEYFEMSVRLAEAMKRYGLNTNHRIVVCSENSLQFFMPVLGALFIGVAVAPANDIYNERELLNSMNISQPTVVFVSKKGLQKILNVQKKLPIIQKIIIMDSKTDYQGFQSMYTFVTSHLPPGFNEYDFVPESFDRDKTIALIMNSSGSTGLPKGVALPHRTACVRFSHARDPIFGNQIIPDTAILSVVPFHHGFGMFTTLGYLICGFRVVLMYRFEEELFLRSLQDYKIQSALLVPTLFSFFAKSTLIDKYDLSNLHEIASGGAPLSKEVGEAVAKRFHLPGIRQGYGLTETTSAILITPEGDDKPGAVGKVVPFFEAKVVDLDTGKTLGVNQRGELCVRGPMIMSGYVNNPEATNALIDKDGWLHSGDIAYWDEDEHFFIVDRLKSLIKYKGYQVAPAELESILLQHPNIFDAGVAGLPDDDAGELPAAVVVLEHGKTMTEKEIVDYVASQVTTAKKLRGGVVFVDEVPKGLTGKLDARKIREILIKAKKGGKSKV

[3] = molecular target: FLuc-C-NLuc (firefly luciferase) (Photinus pyralis, UniProt P08659, form not given/L550V); test: SDR assay, FLuc-C-NLuc; details: - ATP
Chain of FLuc-C-NLuc (firefly luciferase) (P08659 2-550 L550V, form open): as above

[4] = molecular target: T1, FLuc-C-HiBiT (Photinus pyralis, UniProt P08659); test: biochemical; details: enzyme activity, 10 uM ATP; read-out: IC50 or SDR50 (mM) / FLuc E
T1 construct: firefly luciferase with C-terminal HiBiT tag, E. coli expressed
T1 sequence (P08659 whole entry, looked up): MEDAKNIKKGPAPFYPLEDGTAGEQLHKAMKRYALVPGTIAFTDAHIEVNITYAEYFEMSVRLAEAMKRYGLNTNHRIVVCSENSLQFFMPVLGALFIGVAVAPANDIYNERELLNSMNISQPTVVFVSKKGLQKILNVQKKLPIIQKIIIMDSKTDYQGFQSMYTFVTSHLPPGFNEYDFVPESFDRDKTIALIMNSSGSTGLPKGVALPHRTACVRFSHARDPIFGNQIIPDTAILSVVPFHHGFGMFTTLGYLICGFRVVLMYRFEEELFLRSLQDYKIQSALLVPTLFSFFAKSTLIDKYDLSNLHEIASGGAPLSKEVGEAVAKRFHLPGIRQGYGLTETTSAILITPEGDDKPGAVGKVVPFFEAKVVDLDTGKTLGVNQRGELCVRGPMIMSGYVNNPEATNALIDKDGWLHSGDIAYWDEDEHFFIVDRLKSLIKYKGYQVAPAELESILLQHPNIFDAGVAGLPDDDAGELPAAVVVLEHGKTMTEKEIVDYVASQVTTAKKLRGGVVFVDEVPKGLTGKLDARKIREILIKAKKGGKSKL

Chain of P. pyralis FLuc (P08659 whole entry): as the sequence (P08659 whole entry, looked up) above

| SMILES | IC50 [4] | further results |
| --- | --- | --- |
| Cc1ccc(C2Cn3cnc(C(=O)N4CCC(C(=O)NCCC(C)C)CC4)c3CO2)cc1 (stereo not shown) [NCGC00422121-01] | – | Efficacy (%) FLuc E ([1]; FLuc enzymatic assay, Clade S follow-up): -26.32%; IC50 ([1]; FLuc enzymatic assay, read-out: IC50 or SDR50 (mM) FLuc E): 0.0139 mM; AC50 ([1]; Sample Data Type FLuc-Km): 13.9 µM; CC-v2 ([1]; Sample Data Type FLuc-Km): -2.4; Efficacy ([1]; Sample Data Type FLuc-Km): -26.32; Hill Coef ([1]; Sample Data Type FLuc-Km): 1.21; Inf Activity ([1]; Sample Data Type FLuc-Km): -27.95; Max Resp ([1]; Sample Data Type FLuc-Km): -21.63; Zero Activity ([1]; Sample Data Type FLuc-Km): -1.63; % Activity (max response, + ATP) ([2]; + ATP): 49.59%; % Activity (max response, - ATP) ([2]; - ATP): 0.00%; Efficacy (%) FLuc-C-NLuc SDR (-ATP) [3]: 0.00% |
| CCOP(=O)(Cc1ccc(-c2nc3ccccc3s2)cc1)OCC [NCGC00538319-01] | 11.1 µM | – |
| COc1cccc(C(=O)Nc2ccc(-c3nc4ccccc4s3)c(O)c2)c1 [NCGC00594708-01] | > 30 µM | – |
| Cc1ccc(C(=O)Nc2ccc(-c3nc4ccccc4s3)c(O)c2)cc1 [NCGC00594710-01] | > 30 µM | – |
| O=C(Nc1ccc(-c2nc3ccccc3s2)c(O)c1)c1ccccc1 [NCGC00594711-01] | > 30 µM | – |
| Cc1c(NC(=O)c2cccc(Cl)c2Cl)cccc1-c1nc2ccccc2s1 [NCGC00595034-01] | > 30 µM | – |
| O=C(Nc1ccc(O)c(-c2nc3ccccc3s2)c1)c1cc2ccccc2o1 [NCGC00595541-01] | > 30 µM | – |
| CCCCC(=O)Nc1cc(-c2nc3ccccc3s2)ccc1C [NCGC00596082-01] | > 30 µM | – |
| CC(C)C(=O)Nc1cc(-c2nc3ccccc3s2)ccc1Cl [NCGC00596190-01] | > 30 µM | – |
| COc1ccc(C(=O)Nc2cccc(-c3nc4ccccc4s3)c2)cc1 [NCGC00596810-02] | > 30 µM | – |
| O=C(Nc1ccc(-c2nc3ccccc3s2)cc1)c1c(F)c(F)c(F)c(F)c1F [NCGC00598374-01] | > 30 µM | – |
| CN(C)C1CCN(c2ncnc3c2cnn3-c2ccccc2)CC1 [NCGC00608115-01] | > 30 µM | – |
| NC(=O)CC1CCN(c2ncnc3c2cnn3-c2ccccc2)CC1 [NCGC00610672-01] | > 30 µM | – |
| CC(C)C(=O)NC1CCN(Cc2ccc(-c3nc4cccc(Cl)c4s3)cc2)CC1 [NCGC00632240-01] | > 30 µM | – |
| O=C(Nc1ccccc1-c1nc2ccccc2s1)c1ccccc1F [NCGC00636212-01] | > 30 µM | – |
| NC(=O)COC(=O)c1ccccc1-c1nc2ccccc2s1 [NCGC00641952-01] | > 30 µM | – |
| O=C(O)c1ccccc1-c1nc2ccccc2s1 [NCGC00645508-01] | > 30 µM | – |
| OCCN1CCN(c2nc(N3CCCCC3)c3cnn(-c4ccc(Cl)cc4)c3n2)CC1 [NCGC00652352-01] | > 30 µM | – |
| Fc1ccc(-n2ncc3c(N4CCCCC4)nc(NN4CCOCC4)nc32)cc1 [NCGC00652353-01] | > 30 µM | – |
| Cc1ccc(-n2ncc3c(N4CCCCC4)nc(NCCCO)nc32)cc1 [NCGC00652354-01] | > 30 µM | – |
| CCC(CC)COC(=O)[C@H](C)N[P@](=O)(OC[C@H]1O[C@@](C#N)(c2ccc3c(N)ncnn23)[C@H](O)[C@@H]1O)Oc1ccccc1 [NCGC00686694-05] | > 30 µM | – |
| O=C(CSc1nnc2ccccn12)Nc1cccc(-c2nc3ccccc3s2)c1 [NCGC00688053-01] | > 30 µM | – |
| O=C(Nc1cccc(-c2nc3ccccc3s2)c1)c1cc2ccccc2oc1=O [NCGC00688715-01] | > 30 µM | – |
| CCC[C@H](C)Oc1nc(N)c2[nH]c(=O)n(CCCCCN3CCCCC3)c2n1 [NCGC00856659-01] | > 30 µM | – |
| CCCCOc1nc(N)c2[nH]c(=O)n(CCCN(CCCN3CCOCC3)Cc3cccc(CC(=O)OC)c3)c2n1 [NCGC00886690-01] | > 30 µM | – |
| O=C(O)c1cccc(-c2noc(-c3ccccc3F)n2)c1 [PTC124] | 0.00154 µM | – |

More lines, main results first:

| IC50 [4] | SMILES | further results |
| --- | --- | --- |
| > 30 µM | C=CCNC(=O)c1cccc2c(C)nnn12 [NCGC00477166-01] | – |
| 25.4 µM | Cc1nnn2c(C(=O)NC3CC3)cccc12 [NCGC00477171-01] | – |
| 15.7 µM | O=C(Cc1cccc(Cl)c1)N1CCn2c(nnc2-c2ccccc2)C1 [NCGC00479548-01] | – |
| 7 µM | O=C(NCCc1ccccc1F)c1nc2sccn2c1Br [NCGC00479849-01] | – |
| > 30 µM | CC(C)c1nc2c(c(-c3ccc(O)cc3)n1)CN(Cc1ccccc1)CC2 [NCGC00480075-01] | – |
| > 30 µM | CN(C1CCc2ccccc2C1)[S+](=O)([O-])c1cccs1 (stereo not shown) [NCGC00480121-01] | – |
| > 30 µM | CN1CC(=O)N(C2CCCC2)Cc2c1ncnc2N1CCOCC1 [NCGC00480226-01] | – |
| > 30 µM | O=C(NCC(F)(F)F)C1CCCN1c1nc2ncccc2o1 (stereo not shown) [NCGC00480238-01] | – |
| > 30 µM | O=C(c1ccc(F)cc1)N1CCn2c(nnc2C2CC2)C1 [NCGC00480252-01] | – |
| > 30 µM | CC(C)c1nc2c(c(-c3ccc(O)cc3)n1)CCN(Cc1ccccn1)CC2 [NCGC00480326-01] | – |
| > 30 µM | Oc1ccc(-c2nc(C3CC3)nc3c2CCN(Cc2cccc(F)c2)CC3)cc1 [NCGC00480349-01] | – |
| > 30 µM | O=C(Nc1ccccc1)N1CCc2nc(C3CC3)nc(-c3ccc(Cl)cc3)c2C1 [NCGC00480419-01] | – |
| > 30 µM | COCC(=O)N1CCc2nc(C)nc(-c3ccc(OC)cc3)c2C1 [NCGC00480441-01] | – |
| > 30 µM | O=C(c1ccc(C(F)(F)F)cc1)N1CCc2nc(-c3ccccc3)nc(-c3ccc(Cl)cc3)c2C1 [NCGC00480461-01] | – |
| 18 µM | O=C(NCCC1CCCCC1)c1c[nH]c2ncccc12 [NCGC00480521-01] | – |
| > 30 µM | COCCOc1nc(N)c2[nH]c(=O)n(Cc3ccc(C(=O)O)cc3)c2n1 [NCGC00480851-01] | – |
| > 30 µM | CCCCOc1nc(N)c2[nH]c(=O)n(Cc3cccc(CC(=O)OC)c3)c2n1 [NCGC00508895-01] | – |
| 0.157 µM | Cc1ccc(-n2ncc3c(N4CCCC(C)C4)ncnc32)cc1C (stereo not shown) [NCGC00523591-01] | – |
| 0.785 µM | CC1CCCN(c2ncnc3c2cnn3-c2cccc(Cl)c2)C1 (stereo not shown) [NCGC00523592-01] | – |
| > 30 µM | O=C(Nc1ccc(-c2nc3ccccc3s2)c(O)c1)c1ccccc1F [NCGC00594666-01] | – |

| IC50 [4] | SMILES | further results |
| --- | --- | --- |
| > 30 µM | COc1cccc(C(=O)Nc2ccc(O)c(-c3nc4ccccc4s3)c2)c1 [NCGC00594707-01] | – |
| 7 µM | Cc1c(NC(=O)c2ccc(I)o2)cccc1-c1nc2ccccc2s1 [NCGC00595010-01] | – |
| 0.7 µM | Cc1c(NC(=O)Cc2ccccc2)cccc1-c1nc2ccccc2s1 [NCGC00595047-01] | – |
| 8.81 µM | CC(=O)Oc1ccccc1C(=O)Nc1ccc(-c2nc3ccc(C)cc3s2)cc1 [NCGC00596510-01] | – |
| 1.97 µM | CCCN1C(=O)c2ccc(-c3nc4ccccc4s3)cc2C1=O [NCGC00597617-01] | – |
| 0.624 µM | Cc1ccc2nc(-c3ccc(NC(=O)CSc4nnc(C)s4)cc3)sc2c1 [NCGC00598135-01] | – |
| 1.11 µM | CC1CCCCN1c1ncnc2c1cnn2-c1ccccc1 (stereo not shown) [NCGC00605414-01] | – |
| 12.4 µM | OCC1CCN(c2ncnc3c2cnn3-c2ccccc2)CC1 [NCGC00608116-01] | – |
| 9.89 µM | CCOC1CCCN(c2ncnc3c2cnn3-c2ccccc2)C1 (stereo not shown) [NCGC00616559-01] | – |
| 0.394 µM | OCC1CCCN(c2ncnc3c2cnn3-c2ccccc2)C1 (stereo not shown) [NCGC00624837-01] | – |
| 15.7 µM | OC1CCN(c2ncnc3c2cnn3-c2ccccc2)CC1 [NCGC00626234-01] | – |
| 8.81 µM | O=C(Nc1cccc(-c2nc3ccccc3s2)c1)N1CCC(O)C1 (stereo not shown) [NCGC00638360-01] | – |
| 2.48 µM | CSC(=S)Nc1ccc(-c2nc3ccc(C)cc3s2)cc1 [NCGC00640908-01] | – |
| 11.1 µM | NC(=O)C1CCCN(c2ncnc3c2cnn3-c2ccccc2)C1 (stereo not shown) [NCGC00644764-01] | – |
| 4.42 µM | Cc1cc(Cl)ccc1-n1ncc2c(N3CCCCC3)ncnc21 [NCGC00651954-01] | – |
| 0.007 µM | CNc1ccc2cc(-c3nc4ccc(C(=O)O)cc4s3)ccc2c1 [NCGC00655706-01] | – |
| 8.81 µM | Clc1cccc(-c2nc3ccccc3s2)c1 [NCGC00687703-01] | – |
| 9.89 µM | Cc1nonc1COc1ccc(C(=O)Nc2cccc(-c3nc4ccccc4s3)c2)cc1 [NCGC00688799-01] | – |
| 0.00881 µM | CCOc1ccc(NC(=O)Nc2cccc(C(=O)O)c2)cc1 [NCGC00689880-01] | – |

Reference: publication PMC12064818, “A general assay platform to study protein pharmacology using ligand-dependent structural dynamics” (Nature Communications, 2025)
